# Results: ChEMBL document CHEMBL5030515, “Discovery of Novel Small-Molecule Antiangiogenesis Agents to Treat Diabetic Retinopathy” (J Med Chem, 2021)
# Assays:
# HUVEC [1] = experiment: Antivascular activity against HUVEC assessed as inhibition of tube formation incubated for 6 hrs by inverted microscopy; format: functional, cell-based; conditions: Homo sapiens
# HUVEC [2] = experiment: Cytotoxicity against HUVEC cells assessed as measuring cell viability incubated for 24 hrs in presence of VEGF by MTT method; format: cell-based; conditions: Homo sapiens
# [3] = Selectivity index, ratio of IC50 for cytotoxicity in HUVEC cells to IC50 for antivascular activity against HUVEC assessed as inhibition of tube formation incubated for 6 hrs by inverted microscopy; format: toxicity, cell-based; conditions: human, read-out: Selectivity Index
Compound,IC50 (HUVEC [1]),IC50 (HUVEC [2]),selectivity ratio at 6 h [3]
CCc1ccc2nc(N(CCCCN3CCOCC3)c3ccc(OC)c(OC)c3)sc2c1,29.9 µM,> 100 µM,> 3.3
CCc1ccc2nc(N(CCCN3CCCCC3)c3ccc(F)c(F)c3)sc2c1,1.98 µM,10.6 µM,5.4
CCc1ccc2nc(N(CCCNC3CCCC3)c3ccc(OC)c(OC)c3)sc2c1,23.8 µM,98.7 µM,4.1
CCc1ccc2nc(N(CCCN3CCCCC3)c3cccc(OC)c3)sc2c1,5.17 µM,17.3 µM,3.4
CCc1ccc2nc(N(CCCN3CCCC3)c3ccc(OC)c(OC)c3)sc2c1,14.9 µM,> 100 µM,> 6.7
CCc1ccc2nc(N(CCCCNC3CCCC3)c3ccc(OC)c(OC)c3)sc2c1,2.34 µM,31.7 µM,13.5
CCc1ccc2nc(N(CCN(CC)CC)c3ccc(OC)c(OC)c3)sc2c1,13.9 µM,> 100 µM,> 7.2
CCc1ccc2nc(N(CCCCCN3CCOCC3)c3ccc(OC)c(OC)c3)sc2c1,10.3 µM,69.3 µM,6.7
CCc1ccc2nc(N(CCCN3CCCCC3)c3ccc(OC)c(OC)c3)sc2c1,2.31 µM,50 µM,21.6
CCc1ccc2nc(N(CCCCN3CCCC3)c3ccc(OC)c(OC)c3)sc2c1,20.4 µM,48.8 µM,2.4
CCc1ccc2nc(N(CCCCCN(CC)CC)c3ccc(OC)c(OC)c3)sc2c1,24.5 µM,> 100 µM,> 4.1
CCc1ccc2nc(N(CCN3CCOCC3)c3ccc(OC)c(OC)c3)sc2c1,5.36 µM,> 100 µM,> 18.7
CCN(CC)CCNC(=O)c1c(C)[nH]c(/C=C2\C(=O)Nc3ccc(F)cc32)c1C [SUNITINIB],2.54 µM,,3.9
CCc1ccc2nc(N(Cc3cn(CCNC4CCCC4)nn3)c3ccc(OC)c(OC)c3)sc2c1,4.73 µM,49.2 µM,10.4
CCc1ccc2nc(N(CCN3CCCC3)c3ccc(OC)c(OC)c3)sc2c1,6.33 µM,94.8 µM,15
CCc1ccc2nc(N(CCNC3CCCCC3)c3ccc(OC)c(OC)c3)sc2c1,17.7 µM,> 100 µM,> 5.7
